Measured values taken from PMC10643673, “An immunomodulating peptide with potential to suppress tumour growth and autoimmunity” (Scientific Reports, 2023).
Where a SMILES comes first, the peptide text is derived from it. [ ]: non-standard residue; d: D form. Gly(decyl) = CCCCCCCCCC[C@H](N)C(=O)O

Experiments:
[1] = tested on: exhausted CD4+ T cells derived from MBP-tracker mouse splenocytes; assay: Murine splenocyte-derived exhausted CD4+ T cell assay; format: cell-based; settings: highest concentration 1.25 µM
Description: Concept Life Sciences have established a proprietary method for assessing murine CD4+ T cell exhaustion in vitro using Tg4-Ly5.1 MBP-Tracker Mice obtained from the University of Edinburgh. Spleens were removed from transgenic B10PLxC57BL/6 mice and processed to generate a single cell suspension of splenocytes. Myelin basic protein (MBP)-Tracker splenocytes were resuspended at 3 × 10^6/mL and stimulated 72 h at approximately 37 °C, 5% CO2, with altered peptide ligand (APL)-MBP (to generate exhausted cells). Following stimulation, T cells were purified by Ficoll density gradient, and subsequently re-plated at 2 × 10^6/mL in 20 U/mL IL-2 for four days. At the end of this rest period, cells were resuspended (4 × 10^5/mL, final 2 × 10^4 per well) and restimulated using irradiated APCs (from B10PLxC57BL/6 mice, 4 × 10^6/mL, final concentration of 2 × 10^5 cells per well) plus a single dose of APL-MBP peptide together with IK14004 peptide for 72 h.
Supernatants were sampled from culture wells for assessment of IL-2 and IFN-γ by ELISA (eBioScience, Lot # 4280695 and Lot #. 4308729, respectively) and flow cytometry used for assessment of CD25 and Ki67 (eBioScience, Lot # 4276862 and Lot # 4296884, respectively). Anti-PD-1 and IgG2a antibodies were obtained from BioXCell.

[2] = tested on: splenocyte-derived CD4+ T cells and NK cells; settings: mouse, in vivo
Description: LLC cells sourced from ATCC. The Lewis lung cancer cell line was cultured to approximately 70% confluency before cells were collected and resuspended at 5 × 10^6 /mL in sterile HBSS. […] were injected subcutaneously with 5 × 10^5 cells (100 µL) into the right flank. Mice were randomly assigned to treatment groups 5 days after tumour cell implantation such that the average tumour size was approximately equal between the two groups. Test substance IK14004 or vehicle were administered twice weekly (Monday and Thursday) via intraperitoneal (i.p.) injections, from day 5 post tumour cell implantation, until the tumours reached an average of 10 mm in diameter in the vehicle treated group. Tumours were measured three times each week using digital callipers and once the mean tumour size for the vehicle group reached 10 mm in diameter, mice were sacrificed by cervical dislocation and tumour and spleens collected. Spleens were processed into single cell suspensions and the red blood cells lysed. Fresh splenocyte suspensions were assessed by trypan blue exclusion. From fresh splenocyte suspensions, 1 × 10^6 viable cells were stained using a viability dye (Flexible Viability Dye eFluorTM 780; ThermoFisher), CD4 (BV605), NK1.1 (BV510), CD25 (AF488), IL-12Rβ1 (PE) and IL-12Rβ2 (APC) for flow cytometry.

[3] = tested on: splenocytes / CD4+ T cells; assay: Splenocytes from LLC lung metastasis model, fresh or cultured overnight with/without TCR stimulation; format: in vivo, mouse; settings: peptide- vs vehicle-treated mice; after 24 h
Description: Spleens were collected and processed into a single cell suspension. Fresh splenocytes were assessed by means of flow cytometry with CD28 (BV421) and 2 × 10^5 cells per well were then cultured overnight with or without TCR stimulation (anti-CD3 alone or in combination with anti-CD28 both at 2 µg/mL, plate bound overnight in PBS at 4 °C). After overnight culture cell free supernatants were collected and assessed for IFN-γ and IL-2 by ELISA (eBioscience Kits) and set up in technical triplicate. Cells before and after stimulation were stained for flow cytometry (viability, CD4, CD28 (BV711), IL-12Rβ1 and IL-12Rβ2.

human NK cells = assay: Isolated CD3−/CD56+dim NK cell cultures, flow cytometry; format: cell-based; settings: 24 h; all concentrations
Description: CD3−/CD56+^dim NK cell populations were isolated from PBMCs using immuno-magnetic separation (Stem cell, Lot no. 18A86421). CD56^+ NK cells were resuspended in RPMI-10 (RPMI-1640 supplemented with 10% heat inactivated FBS, 100 U/mL penicillin, 100 µg/mL streptomycin, 2 mM L-glutamine, and 50 µM β-mercaptoethanol) at 0.25 × 10^6/mL and plated at a density of 2.5 × 10^4 per well (100 µL) in 96-well, flat bottom culture plates. Purified NK cells were cultured together with either IK14004 or recombinant IL-2 (InVitrogen, Lot #223086-011) for […] at 37 °C, 5% CO2.
(§1) Staining was performed to determine cell viability (Flexible Viability Dye eFluorTM 780; ThermoFisher) and expression of extracellular/intracellular markers assessed using fluorescently-labelled antibodies against human proteins within different cell populations. […] After 24 h cells were collected and CD4+ and CD8+ T cells assessed for TCRα/β expression (PE; BioLegend). Phospho-STAT4 in was assessed in TCR-activated CD3 + T cell and PBMC cultures. […] Cells were then stained with fluorochrome conjugated anti-pSTAT4 antibody (eBioscience, Lot# 12-9044) and intracellular expression determined within CD8+ T cells by flow cytometry. Similarly, anti-CD3-stimulated PBMC cultures were exposed only to recombinant IL-12p70 (Peprotech, Lot #0617596) and pSTAT4 assessed within CD4+ /CD8+ T cell fractions. […]

[4] = tested on: K562 erythroleukemic cells; assay: K562/PBMC co-culture cytotoxicity assay (Calcein AM release); settings: PBMCs exposed to peptide 48 h, then 4 h co-culture at 5:1 ratio; 0.08 to 1.25 µM
Description: Human PBMCs (2.5 × 10^5 cells per well) were cultured in 96-well round-bottom tissue culture plates for 48 h at 37 °C, 5% CO2 in the presence of IK14004 and IKD14004 peptides. After peptide exposure, PBMCs were co-cultured with Calcein AM stained K562 cells (5 × 10^4/well) at a 5:1 ratio for 4 h at 37 °C, 5% CO2. For spontaneous release control Calcein AM-K562 cells alone were treated with PBS (20 µL). For maximal release control Calcein AM-K562 cells alone were treated with lysis buffer (20 µL). After 4 h culture, 150 µL supernatant were transferred to black wall plates and intensity of Calcein green fluorescence release detected using GloMax® Discover to determine percentage of specific cytotoxicity.

[5] = tested on: Lewis lung cancer (LLC) cells; assay: Cancer cell proliferation assay (SRB); format: cell-based, mouse; settings: 72 h, doxorubicin 2.5 µM, positive control
Description: Lewis lung cancer (LLC) cells (sourced from the American Type Culture Collection) were seeded into 96-well plates (1000 cells/well) in complete cell culture medium and allowed to attach for 24 h (37 °C, 5% CO2 in air). Next, an equal volume of either cell culture medium only, or 2 × concentration of drug dissolved in cell culture medium, was added to each of 5 replicate wells (technical replicates) to expose cells to concentrations of IK14004 in the dose range from 0 to 5 µM. Cells were cultured for 72 h in the presence of either IK14004 or Doxorubicin (2.5 µM; positive control) and then the cell culture medium was removed and the attached cells fixed in ice-cold trichloroacetic acid. Fixed cells were stained with Sulforhodamine B (SRB) and then washed with 1% acetic acid to remove unbound dye. The retained dye was solubilised in 10 mM Tris base solution and the absorbance at 550 nm was measured with the baseline (media only without cells) subtracted. The data were normalised between the maximum proliferation (100%, cells with no drug) and the starting cell density (0%, cells before addition of drug). Each experiment was performed on two independent occasions (biological replicates).

[6] = tested on: human PBMCs (CD4+/CD8+ T cells, NK cells); assay: Anti-CD3-stimulated human PBMC cultures, flow cytometry/ELISA; format: cell-based; settings: rIL-12p70 10 ng/mL; 72 h
Description: Preparations of peripheral blood mononuclear cells (PBMCs) and isolated T cells from buffy coat samples were performed using SepMate tubes, EasySep selection and enrichment kits, Lymphoprep, RoboSep Buffer, and EasySep magnets (STEMCELL Company). PBMCs were resuspended in RPMI-10 (RPMI-1640; ThermoFisher) supplemented with 10% heat inactivated Foetal Bovine Serum (LabTech), 100 U/mL penicillin, 100 µg/mL streptomycin (ThermoFisher), 2 mM L-glutamine (ThermoFisher), and 50 µM β-mercaptoethanol (ThermoFisher) at 1 × 10^6 cells/mL and plated at a density of 1 × 10^5 per well (100 µL) in 96-well, flat-bottom culture plates. […]
as §1, with “[…] Flow cytometry data” for “Similarly, anti-CD3-stimulated PBMC cultures”, “exported as FCS files from Attune™ NxT software” for “exposed only to recombinant IL-12p70 (Peprotech, Lot #0617596)”, “analysed using FlowJo™ software.” for “pSTAT4 assessed within CD4+ /CD8+ T cell fractions.”

CCCCCCCCCC[C@H](NC(=O)[C@H](CCCCCCCCCC)NC(=O)[C@H](CCCCCCCCCC)NC(=O)[C@H](CCCCCCCCCC)NC(=O)[C@H](CCCNC(=N)N)NC(=O)[C@H](Cc1ccc(O)cc1)NC(=O)[C@H](CC(C)C)NC(=O)[C@@H]1CCCN1C(=O)[C@H](CC(N)=O)NC(=O)[C@H](CCCCN)NC(=O)[C@H](C)NC(=O)[C@H](CCCCN)NC(=O)[C@H](CO)NC(=O)[C@@H](N)CCCNC(=N)N)C(N)=O [IK14004, RSKAKNPLYR-(2)Adod-(2)Adod-(2)Adod-(2)Adod-amide] (H-RSKAKNPLYR[Gly(decyl)][Gly(decyl)][Gly(decyl)][Gly(decyl)]-NH2)
visual signs of cell death at end of splenocyte culture [1]: no visual signs of cell death | viability of freshly harvested splenocytes [2]: ~100% | viability of cultured splenocytes [3]: no differences | percentage of viable NK cells (human NK cells): remained unchanged | significant K562 cytotoxicity [4]: at most concentrations

COc1cccc2c1C(=O)c1c(O)c3c(c(O)c1C2=O)C[C@@](O)(C(=O)CO)C[C@@H]3O[C@H]1C[C@H](N)[C@H](O)[C@H](C)O1 [doxorubicin]
proliferation of the LLC cell line [5]: total cell kill

B1: rIL-12p70: recombinant IL-12p70 (Peprotech), 10 ng/mL (protein, UniProt P29459 23-219; P29460 23-328, looked up)
Interleukin-12 subunit alpha: RNLPVATPDPGMFPCLHHSQNLLRAVSNMLQKARQTLEFYPCTSEEIDHEDITKDKTSTVEACLPLELTKNESCLNSRETSFITNGSCLASRKTSFMMALCLSSIYEDLKMYQVEFKTMNAKLLMDPKRQIFLDQNMLAVIDELMQALNFNSETVPQKSSLEEPDFYKTKIKLCILLHAFRIRAVTIDRVMSYLNAS
Interleukin-12 subunit beta: IWELKKDVYVVELDWYPDAPGEMVVLTCDTPEEDGITWTLDQSSEVLGSGKTLTIQVKEFGDAGQYTCHKGGEVLSHSLLLLHKKEDGIWSTDILKDQKEPKNKTFLRCEAKNYSGRFTCWWLTTISTDLTFSVKSSRGSSDPQGVTCGAATLSAERVRGDNKEYEYSVECQEDSACPAAEESLPIEVMVDAVHKLKYENYTSSFFIRDIIKPDPPKNLQLKPLKNSRQVEVSWEYPDTWSTPHSYFSLTFCVQVQGKSKREKKDRVFTDKTSATVICRKNASISVRAQDRYYSSSWSEWASVPCS
percentage of pSTAT4-expressing CD8+ T cells [6]: as did the percentage of pSTAT4-expressing CD8+ T cells | proportion of pSTAT4-expressing CD4+ T cells [6]: increased
